Molecular target: T1, Aurora A (Homo sapiens, UniProt O14965)
T1 construct: C-terminally Histidine4 (His4)-tagged Aurora A full-length protein
T1 sequence (O14965 1-403): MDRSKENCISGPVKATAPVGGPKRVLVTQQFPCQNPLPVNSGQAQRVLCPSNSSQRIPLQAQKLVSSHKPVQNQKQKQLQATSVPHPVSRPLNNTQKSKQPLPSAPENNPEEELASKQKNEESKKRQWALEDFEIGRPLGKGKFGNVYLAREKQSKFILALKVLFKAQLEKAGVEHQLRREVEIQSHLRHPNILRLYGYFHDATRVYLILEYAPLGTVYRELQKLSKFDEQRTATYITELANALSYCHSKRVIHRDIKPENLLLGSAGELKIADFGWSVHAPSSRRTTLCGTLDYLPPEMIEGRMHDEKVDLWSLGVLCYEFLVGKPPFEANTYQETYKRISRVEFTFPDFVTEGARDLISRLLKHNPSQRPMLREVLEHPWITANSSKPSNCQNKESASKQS
Experiment: IC50 determination for inhibitors of Aurora A (96 MTP-ELISA)
Type: biochemical
Conditions: His4-tagged full-length Aurora A 250 ng/ml, PKB-GSK2 200 nM, ATP 4 μM, 90 min at room temperature; read-out: IC50 Aurora A kinase inhibition
Text: IC50 Determination for Inhibitors of Aurora A
Aurora A is a serine threonine kinase involved in spindle assembly and chromosome segregation.
The assay is a typically ELISA-type assay where biotinylated substrate (PKB-GSK2) is phosphorylated. Phosphorylation is detected by peroxidase (POD) labelled polyclonal antibody (PAK<M-Ig>S-IgG-POD) and phosphopeptide monoclonal antibody (Mab) (MAK<P-GSK>M-27E5-IgG). The assay is validated for IC50-determination.
Aurora A-His-4 C-terminally Histidine4 (His4)-tagged Aurora A full-length protein, stock solution 0.7 mg/ml, final conc.: 250 ng/ml
PKB-GSK2 biotinylated peptide derived from human GSK3-alpha sequence (Biotin-SGRARTSSFAEPGG-CONH2), stock solution 600 μM, final conc.: 200 nM
ATP Adenosine-5′-triphosphate 1 mM, diluted in kinase buffer, (Roche Diagnostics GmbH, Cat. No.: 127531-001,), final conc.: 4 μM
Kinase buffer 50 mM TRIS, 10 mM MgCl2, 1 mM DTT, 0.1% Tween 20, pH 7.8
This assay is performed in 96-well format for IC50 determination with 5 samples (each with 8 concentrations by twofold testing), 100 μl incubation volume and the following plate layout:
Step/Action 1. Sample preparation: add 24 μl per well samples (descending sequence) diluted in kinase buffer to assay plate (final conc. for DMSO 1%). 2. Add directly 16 μl Aurora-A-his-4 diluted in kinase buffer to assay plate. 3. Add directly 40 μl per well PKB-GSK2/ATP mixture to assay plate, (final conc.: Aurora A=250 ng/ml, GSK2=200 nM, ATP=4 μM). Negative control: without ATP. 4. Incubate assay plate for exactly 90 min at room temperature. 5. Stop reaction by adding 20 μl EDTA in all wells. 6. Wash assay plate 3× with 200 μl washing buffer per well. 7. Add 100 μl MAK<P-GSK>M27E5-IgG (1:10000) and PAK<M-Ig>S-IgG-POD (1:6000) dissolved in 3% BSA/PBS-T to assay plate per well. 8. Incubate assay plate for 60 min at room temperature. 9. Wash assay plate 3× with 200 μl washing buffer per well 10. Add 100 μl ABTS solution to assay plate per well, incubate for approx. 4 min at RT on MTP shaker. 11. Measure absorption at 405/492 nm. 12. Calculate % inhibition as: (1−(Esample−ENC)/(EPC−ENC))×100 13. Calculate IC50 using a non-linear curve fit (XLfit software (ID Business Solution Ltd., Guilford, Surrey, UK))

Compound	IC50
Cc1cc(-c2nc3cc4[nH]c(=O)n(C)c4cc3[nH]2)n[nH]1 [Example 10, 3-Methyl-6-(5-methyl-1H-pyrazol-3-yl)-3,5-dihydro-1H-benzo[1,2-d;4,5-d′]diimidazol-2-one]	10 to 500 nM
CCc1[nH]nc(-c2nc3cc4c(cc3[nH]2)C(C)(C)C(=O)N4)c1C [Example 19, 2-(5-Ethyl-4-methyl-1H-pyrazol-3-yl)-7,7-dimethyl-5,7-dihydro-1H-imidazo[4,5-f]indol-6-one]	10 to 500 nM
CC1(C)C(=O)Nc2cc3nc(-c4cc(C5CC5)[nH]n4)[nH]c3cc21 [Example 21, 2-(5-Cyclopropyl-1H-pyrazol-3-yl)-7,7-dimethyl-5,7-dihydro-1H-imidazo[4,5-f]indol-6-one]	10 to 500 nM
CC1(C)CC(=O)Nc2cc3nc(-c4cc(C5CC5)[nH]n4)[nH]c3cc21 [Example 25, 2-(5-Cyclopropyl-1H-pyrazol-3-yl)-8,8-dimethyl-1,5,7,8-tetrahydro-imidazo[4,5-g]quinolin-6-one]	10 to 500 nM

Test system: HCT 116 cells
Experiment: CellTiter-Glo assay in HCT 116 cells (antiproliferative activity)
Type: cell-based
Conditions: HCT 116 human colon carcinoma cells, 5 days (120 h) incubation, CellTiter-Glo luminescence
Text: Antiproliferative Activity
CellTiter-Glo™ Assay in HCT 116 Cells
The CellTiter-Glo™ Luminescent Cell Viability Assay (Promega) is a homogeneous method of determining the number of viable cells in culture based on quantitation of the ATP present, which signals the presence of metabolically active cells.
HCT 116 cells (human colon carcinoma, ATCC-No. CCI-247) were cultivated in RPMI 1640 medium with GlutaMAX™ I (Invitrogen, Cat-No. 61870-010), 2.5% Fetal Calf Serum (FCS, Sigma Cat-No. F4135 (FBS)); 100 Units/ml penicillin/100 μg/ml streptomycin (=Pen/Strep from Invitrogen Cat. No. 15140). For the assay the cells were seeded in 384 well plates, 1000 cells per well, in the same medium. The next day the test compounds were added in various concentrations ranging from 30 μM to 0.0015 μM (10 concentrations, 1:3 diluted). After 5 days the CellTiter-Glo™ assay was done according to the instructions of the manufacturer (CellTiter-Glo™ Luminescent Cell Viability Assay, from Promega). In brief: the cell-plate was equilibrated to room temperature for approximately 30 minutes and than the CellTiter-Glo™ reagent was added. The contents were carefully mixed for 15 minutes to induce cell lysis. After 45 minutes the luminescent signal was measured in Victor 2, (scanning multiwell spectrophotometer, Wallac).
Medium: RPMI 1640 with GlutaMAX™ I (Invitrogen, Cat-Nr. 61870), 5% FCS (Sigma Cat.-No. F4135), Pen/Strep (Invitrogen, Cat No. 15140).
HCT116 (ATCC-No. CCI-247): 1000 cells in 60 μl per well of 384 well plate (Greiner 781098, μClear-plate white)
After seeding incubate plates 24 h at 37° C., 5% CO2
2nd. Day: Induction (Treatment with Compounds, 10 Concentrations):
In order to achieve a final concentration of 30 μM as highest concentration 3.5 μl of 10 mM compound stock solution were added directly to 163 μl media. Then step e) of the dilution procedure described below, was followed.
In order to achieve the second highest to the lowest concentrations, a serial dilution with dilution steps of 1:3 was followed according to the procedure (a-e) as described here below: • for the second highest concentration add 10 μl of 10 mM stock solution of compound to 20 μl dimethylsulfoxide (DMSO) • dilute 8×1:3 (always 10 μl to 20 μl DMSO) in this DMSO dilution row (results in 9 wells with concentrations from 3333.3 μM to 0.51 μM) • dilute each concentration 1:47.6 (3.5 μl compound dilution to 163 μl media) • add 10 μl of every concentration to 60 μl media in the cell plate resulting in final concentration of DMSO: 0.3% in every well and resulting in 10 final concentration of compounds ranging from 30 μM to 0.0015 μM. • Each compound is tested in triplicate. • Incubate 120 h (5 days) at 37° C., 5% CO2 Analysis:
Add 30 μl CellTiter-Glo™ Reagent (prepared from CellTiter-Glo™ Buffer and CellTiter-Glo™ Substrate (lyophilized) purchased from Promega) per well, • shake 15 minutes at room temperature • incubate further 45 minutes at room temperature without shaking Measurement:
Victor 2 scanning multiwell spectrophotometer (Wallac), Luminescence mode (0.5 sec/read, 477 nm)
Determine IC50 using a non-linear curve fit (XLfit software (ID Business Solution Ltd., Guilford, Surrey, UK))

Compound	IC50
CC(C)Cc1cc(-c2nc3cc4c(cc3[nH]2)NC(=O)C42CCCC2)[nH]n1 [Example 8, 2-(5-Isobutyl-2H-pyrazol-3-yl)-spiro-5,7-dihydro[cyclopentane-1′,7-imidazo[4,5-f]indol]-6(3H)-one]	100 to 10000 nM
CCN1C(=O)C(C)(C)c2cc3nc(-c4cc(C)[nH]n4)[nH]c3cc21 [Example 12, 5-Ethyl-7,7-dimethyl-2-(5-methyl-1H-pyrazol-3-yl)-5,7-dihydro-3H-imidazo[4,5-f]indol-6-one]	100 to 10000 nM
CCCc1cc(-c2nc3cc4c(cc3[nH]2)N(C)C(=O)C4(C)C)[nH]n1 [Example 14, 5,7,7-Trimethyl-2-(5-propyl-2H-pyrazol-3-yl)-5,7-dihydro-3H-imidazo[4,5-f]indol-6-one]	1200 nM
CCN1C(=O)C(C)(C)c2cc3nc(-c4cc(CC(C)C)n[nH]4)[nH]c3cc21 [Example 15, 5-Ethyl-2-(5-isobutyl-2H-pyrazol-3-yl)-7,7-dimethyl-5,7-dihydro-3H-imidazo[4,5-f]indol-6-one]	100 to 10000 nM
CC(C)Cc1cc(-c2nc3cc4c(cc3[nH]2)N(C)C(=O)C4(C)C)[nH]n1 [Example 16, 2-(5-Isobutyl-2H-pyrazol-3-yl)-5,7,7-trimethyl-5,7-dihydro-3H-imidazo[4,5-f]indol-6-one]	100 to 10000 nM
CC1(C)C(=O)Nc2cc3nc(-c4cc[nH]n4)[nH]c3cc21 [Example 20, 7,7-Dimethyl-2-(1H-pyrazol-3-yl)-5,7-dihydro-1H-imidazo[4,5-f]indol-6-one]	100 to 10000 nM
CC(C)c1cc(-c2nc3cc4c(cc3[nH]2)C(C)(C)C(=O)N4)[nH]n1 [Example 22, 2-(5-Isopropyl-2H-pyrazol-3-yl)-7,7-dimethyl-5,7-dihydro-1H-imidazo[4,5-f]indol-6-one]	100 to 10000 nM
CN1C(=O)C(C)(C)c2cc3nc(-c4cc[nH]n4)[nH]c3cc21 [Example 30, 5,7,7-Trimethyl-2-(1H-pyrazol-3-yl)-5,7-dihydro-3H-imidazo[4,5-f]indol-6-one]	100 to 10000 nM
CCN1C(=O)C(C)(C)c2cc3nc(-c4cc[nH]n4)[nH]c3cc21 [Example 32, 5-Ethyl-7,7-dimethyl-2-(1H-pyrazol-3-yl)-5,7-dihydro-3H-imidazo[4,5-f]indol-6-one]	100 to 10000 nM
CCCc1cc(-c2nc3cc4c(cc3[nH]2)N(CC)C(=O)C4(C)C)[nH]n1 [Example 33, 5-Ethyl-7,7-dimethyl-2-(5-propyl-2H-pyrazol-3-yl)-5,7-dihydro-3H-imidazo[4,5-f]indol-6-one; compound with acetic acid]	100 to 10000 nM
CC1(C)C(=O)Nc2cc3nc(-c4cc(C(F)(F)F)n[nH]4)[nH]c3cc21 [Example 38, 7,7-Dimethyl-2-(5-trifluoromethyl-2H-pyrazol-3-yl)-5,7-dihydro-1H-imidazo[4,5-f]indol-6-one]	10000 to 100000 nM
CCN1C(=O)C(C)(C)c2cc3nc(-c4cc(C(F)(F)F)[nH]n4)[nH]c3cc21 [Example 39, 5-Ethyl-7,7-dimethyl-2-(5-trifluoromethyl-1H-pyrazol-3-yl)-5,7-dihydro-3H-imidazo[4,5-f]indol-6-one]	100 to 10000 nM
CN1C(=O)C(C)(C)c2cc3nc(-c4cc(C(F)(F)F)n[nH]4)[nH]c3cc21 [Example 42, 5,7,7-Trimethyl-2-(5-trifluoromethyl-2H-pyrazol-3-yl)-5,7-dihydro-3H-imidazo[4,5-f]indol-6-one]	980 nM
O=C1Nc2cc3nc(-c4cc(C5CC5)[nH]n4)[nH]c3cc2C12CCCC2 [Example 43, 2-(5-Cyclopropyl-2H-pyrazol-3-yl)-spiro-5,7-dihydro[cyclopentane-1′,7-imidazo[4,5-f]indol]-6(3H)-one]	100 to 10000 nM
CCN1C(=O)C(C)(C)c2cc3nc(-c4cc(OC)[nH]n4)[nH]c3cc21 [Example 44, 5-Ethyl-2-(5-methoxy-1H-pyrazol-3-yl)-7,7-dimethyl-5,7-dihydro-3H-imidazo[4,5-f]indol-6-one]	100 to 10000 nM
CCN1C(=O)C(C)(C)c2cc3[nH]c(-c4cc(SC)[nH]n4)nc3cc21 [Example 45, 5-Ethyl-7,7-dimethyl-2-(5-methylsulfanyl-1H-pyrazol-3-yl)-5,7-dihydro-1H-imidazo[4,5-f]indol-6-one]	100 to 10000 nM
